For test [1] the following is noted: literature (Gudmundson et al. 1966); cited from earlier work.
Test [2] has as its system female Wistar rats. The experiment in a line: randomized bioassay, effect on plasma calcium after tail vein injection (Example 2). The format is in vivo. On the procedure:
After preliminary experiments had shown that the time courses of the effects of PDN 21 and human calcitonin (hCT) on plasma calcium were similar, peptide in acetate buffer was injected into the tail vein of female Wistar rats (mean wt 45 g, range 43―48, Oxfordshire Laboratory Animal Colonies (1976) Ltd.) and blood was taken from the aorta after 30 min in a randomized bioassay (Macintyre, I. Galante, L. S. & Hillyard, C. J. in Handbuch der inneren MedizinVllIA(eds) Kuhlen- cordt, F. & Bartelheimer, H. 623-634 (Springer-Verlag, Heidelberg, 1980)). Plasma calcium was measured colormetrically by the method of (Gindler, E. M. & King, J. D. Amer. J.Clin. Path. 58, 376―382 (1972)), and the values confirmed by atomic absorption spectrophotometry. The results are shown graphically in Figure 3. Each point is the mean from three rats 0 PDN-21; A hCT (WHO 1st International Reference Preparation of Calcitonin Hormone for Bioassay, 70/234 supplied by the National Institute for Biological Standards and Control); DhCT+PDN-21 (800 ng PDN 21 was injected with each dose of calcitonin). […] Smoothed curves were fitted to the data by eye. […] Potencies were calculated in terms of hCT over the dose ranges where the log dose response is linear, yielding values of 0.017 milliunits hCT equivalent/ng PDN-21 and 5.11 milliunits hCT equivalent/milliunit hCT in the hCT+PDN-21 group. […]

With calcitonin, the “effect on plasma phosphate” value in test [1] is “lowers”.
Take human calcitonin [hCT]: the “enhancement of the potency of hCT” value in test [2] (in the presence of a maximal dose of PDN-21, plasma calcium in the rat) is on record as “five-fold”. Also, the “dose giving 50% response (ED50), plasma calcium” value in test [2] (tail vein injection, blood after 30 min, probit transformation) is given as 0.71 MRC milliunits.

The values are drawn from patent EP0070186B1, “Biologically active peptides” (CELLTECH LIMITED, priority 1981, dated 1985).
